Laboratory results from US12552775B2, “Compounds and uses thereof” (Foghorn Therapeutics Inc., priority 2020, dated 2026).

Experiments:
[1] = target: T1, HiBit-BRG1 fusion protein (Homo sapiens, UniProt P51532); assay: HiBiT-BRG1 cell-based degradation assay (Nano-Glo HiBiT Lytic Detection, 24 h); conditions: stable HeLa cell line expressing HiBit-BRG1 and LgBit, top dose 30 μM, read-out: BRG1 HiBit Degradation Maximum (%)
T1 construct: expressed in transfected cells
Procedure, shortened: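 HeLa cells stably expressing HiBiT-BRG1 plus LgBiT were treated with 10-point 3-fold compound dilutions (top 30 μM final) for 24 h. Lytic Nano-Glo HiBiT luminescence was read. % degradation was normalised between DMSO (high control) and 2 μM of a reference BRM/BRG1 degrader (low control).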

HiBit-BRM fusion protein = target: T2, HiBit-BRM fusion protein (Homo sapiens, UniProt P51531); assay: HiBiT-BRM cell-based degradation assay (Nano-Glo HiBiT Lytic Detection, 24 h); conditions: stable HeLa cell line expressing HiBiT-BRM, top dose 30 μM
T2 construct: expressed in transfected cells
Procedure, shortened: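 Stable HiBiT-BRM HeLa cells were treated with 10-point 3-fold serial dilutions (30 μM final top dose, duplicate) for 24 h, then lysed with LgBiT-containing detection reagent and luminescence read. Degradation % was normalised to DMSO (high control) and 2 μM reference BRM/BRG1 degrader (low control).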

T1 sequence (P51532 whole entry, the tested form may be a part): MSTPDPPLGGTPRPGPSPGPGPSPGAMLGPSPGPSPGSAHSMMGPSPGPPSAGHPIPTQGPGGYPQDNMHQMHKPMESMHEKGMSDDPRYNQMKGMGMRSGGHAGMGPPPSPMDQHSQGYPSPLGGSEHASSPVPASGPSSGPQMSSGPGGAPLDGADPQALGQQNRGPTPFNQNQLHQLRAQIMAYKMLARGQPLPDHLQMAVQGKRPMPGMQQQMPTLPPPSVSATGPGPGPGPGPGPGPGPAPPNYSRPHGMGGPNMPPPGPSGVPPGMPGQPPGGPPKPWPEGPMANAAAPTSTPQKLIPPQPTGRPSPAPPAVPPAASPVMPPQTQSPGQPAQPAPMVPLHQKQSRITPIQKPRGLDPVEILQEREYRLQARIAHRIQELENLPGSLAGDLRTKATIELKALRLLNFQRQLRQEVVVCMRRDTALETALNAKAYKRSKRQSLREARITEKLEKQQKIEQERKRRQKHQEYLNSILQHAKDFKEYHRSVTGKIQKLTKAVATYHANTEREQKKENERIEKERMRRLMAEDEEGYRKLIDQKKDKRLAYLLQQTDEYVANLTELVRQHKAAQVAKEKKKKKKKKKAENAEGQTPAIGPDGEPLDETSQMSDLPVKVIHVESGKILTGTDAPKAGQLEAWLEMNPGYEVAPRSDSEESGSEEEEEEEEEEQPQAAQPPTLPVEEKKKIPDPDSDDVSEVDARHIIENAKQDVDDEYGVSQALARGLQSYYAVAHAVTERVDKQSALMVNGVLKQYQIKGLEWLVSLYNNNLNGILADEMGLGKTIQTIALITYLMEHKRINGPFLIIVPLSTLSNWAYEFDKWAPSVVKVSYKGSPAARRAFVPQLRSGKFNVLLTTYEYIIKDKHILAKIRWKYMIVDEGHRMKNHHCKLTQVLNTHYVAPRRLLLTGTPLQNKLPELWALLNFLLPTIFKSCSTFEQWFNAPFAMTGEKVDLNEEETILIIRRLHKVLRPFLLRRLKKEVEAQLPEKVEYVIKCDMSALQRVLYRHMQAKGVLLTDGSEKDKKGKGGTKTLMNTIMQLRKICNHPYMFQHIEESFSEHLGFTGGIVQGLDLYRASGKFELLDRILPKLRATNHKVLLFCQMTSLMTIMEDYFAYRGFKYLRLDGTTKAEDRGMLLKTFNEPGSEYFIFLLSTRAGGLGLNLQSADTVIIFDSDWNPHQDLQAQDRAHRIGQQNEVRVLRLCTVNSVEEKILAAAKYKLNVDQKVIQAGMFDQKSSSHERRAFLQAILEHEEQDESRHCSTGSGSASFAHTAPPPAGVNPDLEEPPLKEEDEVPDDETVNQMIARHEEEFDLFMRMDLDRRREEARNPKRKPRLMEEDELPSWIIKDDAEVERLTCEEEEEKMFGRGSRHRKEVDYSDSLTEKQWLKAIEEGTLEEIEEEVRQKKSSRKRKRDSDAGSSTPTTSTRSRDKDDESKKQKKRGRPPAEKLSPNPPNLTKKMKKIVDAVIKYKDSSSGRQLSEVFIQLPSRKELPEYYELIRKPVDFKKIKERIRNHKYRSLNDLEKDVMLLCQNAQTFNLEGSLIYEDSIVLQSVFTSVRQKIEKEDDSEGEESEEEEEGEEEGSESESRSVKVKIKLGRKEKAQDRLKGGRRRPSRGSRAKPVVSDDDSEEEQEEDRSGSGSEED
T2 sequence (P51531 whole entry, the tested form may be a part): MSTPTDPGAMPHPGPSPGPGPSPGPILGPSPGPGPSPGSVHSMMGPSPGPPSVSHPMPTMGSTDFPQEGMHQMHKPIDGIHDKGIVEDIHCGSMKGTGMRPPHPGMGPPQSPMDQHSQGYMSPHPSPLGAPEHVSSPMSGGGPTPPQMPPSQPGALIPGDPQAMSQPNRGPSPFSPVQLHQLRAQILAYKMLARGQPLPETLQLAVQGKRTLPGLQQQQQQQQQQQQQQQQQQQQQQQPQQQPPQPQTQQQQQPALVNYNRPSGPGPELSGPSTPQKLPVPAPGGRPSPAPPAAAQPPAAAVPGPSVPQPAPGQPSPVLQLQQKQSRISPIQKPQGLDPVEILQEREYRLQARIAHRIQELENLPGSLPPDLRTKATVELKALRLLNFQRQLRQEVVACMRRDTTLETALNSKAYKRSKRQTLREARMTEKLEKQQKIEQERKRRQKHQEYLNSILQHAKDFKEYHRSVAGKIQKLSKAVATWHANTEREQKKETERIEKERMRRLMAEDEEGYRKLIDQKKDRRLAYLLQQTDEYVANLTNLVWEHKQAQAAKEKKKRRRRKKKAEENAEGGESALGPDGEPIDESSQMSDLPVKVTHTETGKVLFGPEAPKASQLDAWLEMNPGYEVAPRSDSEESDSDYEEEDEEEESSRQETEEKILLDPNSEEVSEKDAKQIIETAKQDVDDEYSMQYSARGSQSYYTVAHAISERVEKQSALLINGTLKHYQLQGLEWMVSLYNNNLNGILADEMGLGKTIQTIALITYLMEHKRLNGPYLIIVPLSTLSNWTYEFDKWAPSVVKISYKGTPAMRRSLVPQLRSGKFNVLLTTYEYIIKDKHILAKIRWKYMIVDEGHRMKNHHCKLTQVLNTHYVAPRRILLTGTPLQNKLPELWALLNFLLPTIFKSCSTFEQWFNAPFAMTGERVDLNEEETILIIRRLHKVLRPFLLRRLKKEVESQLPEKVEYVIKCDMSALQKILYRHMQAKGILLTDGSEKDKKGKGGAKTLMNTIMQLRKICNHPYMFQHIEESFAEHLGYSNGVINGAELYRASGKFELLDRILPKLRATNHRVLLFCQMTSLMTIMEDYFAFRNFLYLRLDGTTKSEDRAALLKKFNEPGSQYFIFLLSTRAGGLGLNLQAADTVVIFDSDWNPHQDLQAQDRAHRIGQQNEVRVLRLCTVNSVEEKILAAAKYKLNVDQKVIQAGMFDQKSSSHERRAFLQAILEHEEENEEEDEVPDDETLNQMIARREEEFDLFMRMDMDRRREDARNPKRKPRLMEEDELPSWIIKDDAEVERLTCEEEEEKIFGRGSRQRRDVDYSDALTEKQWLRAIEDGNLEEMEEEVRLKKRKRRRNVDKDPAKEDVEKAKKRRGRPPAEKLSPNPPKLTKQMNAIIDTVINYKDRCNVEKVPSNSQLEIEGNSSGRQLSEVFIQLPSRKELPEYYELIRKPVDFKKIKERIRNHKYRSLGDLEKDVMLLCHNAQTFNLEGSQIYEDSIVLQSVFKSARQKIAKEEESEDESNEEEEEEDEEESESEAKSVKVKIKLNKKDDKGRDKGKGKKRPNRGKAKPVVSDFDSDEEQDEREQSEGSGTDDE

SMILES	Dmax [1]	BRM HiBit Degradation Maximum (%) (HiBit-BRM fusion protein)
Nc1nnc(-c2ccccc2O)cc1OCC12CC(C(=O)N3CC(COc4ccc5c(c4)C(=O)N(C4CCC(=O)NC4=O)C5=O)C3)(C1)C2 (centres unmarked) [Compound 86, 5-((1-(3-(((3-amino-6-(2-hydroxyphenyl)pyridazin-4-yl)oxy)methyl)bicyclo[1.1.1]pentane-1-carbonyl)azetidin-3-yl)methoxy)-2-(2,6-dioxopiperidin-3-yl)isoindoline-1,3-dione]	> 50%	B (“B” indicates maximum degradation ≥ 50%)
Cc1ncsc1-c1ccc(CNC(=O)[C@@H]2C[C@@H](O)CN2C(=O)[C@@H](NC(=O)CCCCCCCCCNC(=O)C23CC(COc4cc(-c5ccccc5O)nnc4N)(C2)C3)C(C)(C)C)cc1 [Compound 72, (2S,4R)-1-((S)-2-(10-(3-(((3-amino-6-(2-hydroxyphenyl)pyridazin-4-yl)oxy)methyl)bicyclo[1.1.1]pentane-1-carboxamido)decanamido)-3,3-dimethylbutanoyl)-4-hydroxy-N-(4-(4-methylthiazol-5-yl)benzyl)pyrrolidine-2-carboxamide]	< 50%	B (“B” indicates maximum degradation ≥ 50%)
Nc1nnc(-c2ccccc2O)cc1OCC12CC(CNC(=O)CCOCCOCCNc3ccc4c(c3)C(=O)N(C3CCC(=O)NC3=O)C4=O)(C1)C2 (centres unmarked) [Compound 6, N-[[3-([[3-amino-6-(2-hydroxyphenyl)pyridazin-4-yl]oxy]methyl)bicyclo[1.1.1]pentan-1-yl]methyl]-3-[2-(2-[[2-(2,6-dioxopiperidin-3-yl)-1,3-dioxoisoindol-5-yl]amino]ethoxy)ethoxy]propanamide]	< 50%	C (“C” indicates maximum degradation < 50%)
Nc1nnc(-c2ccccc2O)cc1OCC12CC(C(=O)N3CC(CCOc4cccc5c4C(=O)N(C4CCC(=O)NC4=O)C5=O)C3)(C1)C2 (centres unmarked) [Compound 78, 4-(2-(1-(3-(((3-amino-6-(2-hydroxyphenyl)pyridazin-4-yl)oxy)methyl)bicyclo[1.1.1]pentane-1-carbonyl)azetidin-3-yl)ethoxy)-2-(2,6-dioxopiperidin-3-yl)isoindoline-1,3-dione]	< 50%	C (“C” indicates maximum degradation < 50%)
Cc1ncsc1-c1ccc(CNC(=O)[C@@H]2C[C@@H](O)CN2C(=O)[C@@H](NC(=O)CCCCCCCCCCC(=O)NCC23CC(COc4cc(-c5ccccc5O)nnc4N)(C2)C3)C(C)(C)C)cc1 [Compound 38, N1-((3-(((3-amino-6-(2-hydroxyphenyl)pyridazin-4-yl)oxy)methyl)bicyclo[1.1.1]pentan-1-yl)methyl)-N12-((S)-1-((2S,4R)-4-hydroxy-2-((4-(4-methylthiazol-5-yl)benzyl)carbamoyl)pyrrolidin-1-yl)-3,3-dimethyl-1-oxobutan-2-yl)dodecanediamide]	< 50%	B (“B” indicates maximum degradation ≥ 50%)
Nc1nnc(-c2ccccc2O)cc1OCC12CC(C(=O)NCCOc3ccc4c(c3)C(=O)N(C3CCC(=O)NC3=O)C4=O)(C1)C2 (centres unmarked) [Compound 55, 3-(((3-amino-6-(2-hydroxyphenyl)pyridazin-4-yl)oxy)methyl)-N-(2-((2-(2,6-dioxopiperidin-3-yl)-1,3-dioxoisoindolin-5-yl)oxy)ethyl)bicyclo[1.1.1]pentane-1-carboxamide]	< 50%	C (“C” indicates maximum degradation < 50%)
Cc1ncsc1-c1ccc(CNC(=O)[C@@H]2C[C@@H](O)CN2C(=O)[C@@H](NC(=O)CCCCCCCCCCCCCCC(=O)NCC23CC(COc4cc(-c5ccccc5O)nnc4N)(C2)C3)C(C)(C)C)cc1 [Compound 41, N1-((3-(((3-amino-6-(2-hydroxyphenyl)pyridazin-4-yl)oxy)methyl)bicyclo[1.1.1]pentan-1-yl)methyl)-N16-((S)-1-((2S,4R)-4-hydroxy-2-((4-(4-methylthiazol-5-yl)benzyl)carbamoyl)pyrrolidin-1-yl)-3,3-dimethyl-1-oxobutan-2-yl)hexadecanediamide]	< 50%	B (“B” indicates maximum degradation ≥ 50%)
